Where a name gives a salt, the structure may show the parent alone.
Biological target: T1, Human ADA (Homo sapiens, UniProt P00813)
T1 construct: made in house
T1 sequence (P00813 1-363): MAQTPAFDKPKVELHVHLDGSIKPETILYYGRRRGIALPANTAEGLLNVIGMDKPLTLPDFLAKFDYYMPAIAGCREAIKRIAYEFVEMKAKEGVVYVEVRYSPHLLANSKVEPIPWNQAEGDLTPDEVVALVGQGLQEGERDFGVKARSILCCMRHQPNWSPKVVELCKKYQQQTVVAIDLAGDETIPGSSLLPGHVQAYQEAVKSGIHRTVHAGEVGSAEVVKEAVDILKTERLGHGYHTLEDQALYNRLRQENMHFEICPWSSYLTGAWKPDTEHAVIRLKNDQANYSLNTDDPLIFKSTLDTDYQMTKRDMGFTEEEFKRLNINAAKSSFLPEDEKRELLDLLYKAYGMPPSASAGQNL
Assay: Adenosine Deaminase (ADA) Enzyme Assay
Assay type: biochemical
Settings: 0.16 μg/ml ADA, 0.1 mM adenosine, 10 mM phosphate buffer saline pH 7.4, room temperature, decrease in A265 for 3 minutes
Method: Adenosine Deaminase (ADA) Enzyme Assay
• 1-{(3R,4S)-4-Hydroxy-1-[2-(4-ethoxyphenyl)-4-benzoxazolyl]-3-pentyl}-imidazole-4-carboxamide hydrochloride (E0023) • 1-{(3R,4S)-4-Hydroxy-1-[2-(2-thienyl)-7-benzoxazolyl]-3-pentyl}-imidazole-4-carboxamide hydrochloride (E0028) Test Method:
The reaction velocity (V) is measured by a change in absorbance at 265 nm (A265) resulting from the deamination of adenosine. Human ADA was expressed and purified from ADA-deficient bacterial strain. Reaction mixtures of a total volume of 200 μl contained 0.16 μg/ml of ADA and 0.1 mM of adenosine and test compound in 10 mM phosphate buffer saline (pH 7.4). The reaction was started by addition of ADA to a mixture of adenosine and test compound. The reaction was followed at room temperature by recording decrease in A265 for 3 minutes in SPECTRAmax 250 (Molecular Devices, USA) to automatically calculate Vmax. Inhibitory potency of test compound was expressed as IC50 value, the drug concentration required to produce 50% inhibition of Vmax in comparison to vehicle treatment.

IC50 [nM]	Structure (SMILES)
< 20	CCOc1ccc(-c2nc3c(CC[C@H]([C@H](C)O)n4cnc(C(N)=O)c4)cccc3o2)cc1 [Compound E0023, 1-{(3R,4S)-4-Hydroxy-1-[2-(4-ethoxyphenyl)-4-benzoxazolyl]-3-pentyl}imidazole-4-carboxamide hydrochloride]
< 20	C[C@H](O)[C@@H](CCc1cccc2nc(-c3cccs3)oc12)n1cnc(C(N)=O)c1 [Compound E0028, 1-{(3R,4S)-4-Hydroxy-1-[2-(2-thienyl)-7-benzoxazolyl]-3-pentyl}imidazole-4-carboxamide hydrochloride]

Reference: patent US7317107B2, “Imidazole 4-carboxamide compounds with adenosine deaminase inhibiting activity” (Astellas Pharma Inc., priority 2002, dated 2008)
